# Test results as given in ChEMBL document CHEMBL1201862, “PubChem BioAssay data set” (2004).
# Activity calls are given as the source filed them.
# Tests used:
# [1] = Late stage assay provider results from the probe development effort to identify selective inhibitors of heat shock protein 90 (HSP90): Absorbance-based cell proliferation assay in MCF7 cells.; type: functional
# [2] = Late stage assay provider results from the probe development effort to identify selective inhibitors of heat shock protein 90 (HSP90): Absorbance-based cell proliferation assay in SKBR3 cells.; type: functional; conditions: SK-BR-3
# [3] = molecular target: T1, Beta-2 adrenergic receptor (Homo sapiens, UniProt P07550); assay: Dose response for HTS for Beta-2AR agonists via FAP method from Powderset3.; type: functional
# [4] = molecular target: T1, Beta-2 adrenergic receptor; assay: beta2AR agonists driving receptor internalization, dose response, cell-based, FAP fluorogen, flow cytometry, cherry pick 1 (AID 588763); type: functional
# [5] = molecular target: T2, Scavenger receptor class B member 1 (Mus musculus, UniProt Q61009); assay: inhibitors of SR-BI dependent HDL uptake, dose response, ldlA[mSR-BI] CHO cells, fluorescence plate reader, dry powder, set 9 (AID 623880); type: functional, cell-based
# [6] = molecular target: T2, Scavenger receptor class B member 1; assay: inhibitors of SR-BI-mediated HDL uptake, dose response, cell-based, ldlA[mSR-BI] CHO, DiI fluorescence, dry powder, set 10 (AID 624029); type: functional
# [7] = molecular target: Potassium channel subfamily K member 3 (Rattus norvegicus, UniProt O54912); assay: SAR analysis for the identification of selective inhibitors of the two-pore domain potassium channel TASK1(KCNK3):Automated Electrophysiology.; type: functional
# [8] = molecular target: Potassium channel subfamily K member 3 (Homo sapiens, UniProt O14649); assay: TASK1 (KCNK3) potassium channel inhibitors, SAR follow-up, CHO cells, FluxOR thallium flux (AID 652212); type: functional
# [9] = molecular target: SWI/SNF-related matrix-associated actin-dependent regulator of chromatin subfamily A member 2 (Homo sapiens, UniProt P51531); assay: Luminescence-based cell-based high throughput dose response assay to identify activators of the function of SWI/SNF related, matrix associated, actin dependent regulator of chromatin, subfamily a, member 2 (SMARCA2, BRM).; type: functional
# [10] = Counterscreen for activators of the function of SWI/SNF related, matrix associated, actin dependent regulator of chromatin, subfamily a, member 2 (SMARCA2, BRM): Luminescence-based cell-based high throughput dose response assay to identify non-selective compounds using the VP16 reporter assay.; type: functional
# Protein Wnt-3a = Protein Wnt-3a (Mus musculus, UniProt P27467); assay: SAR analysis of small molecule antagonists of Gli-SUFU in a Wnt3a luminescent reporter assay.; type: functional
# Streptokinase A = molecular target: T3, Streptokinase A (Streptococcus pyogenes serotype M1, UniProt P10520); assay: S. pyogenes streptokinase expression inhibitors, potency, dose response, plasminogen activation absorbance, OD405 (AID 1914); type: functional, Streptococcus pyogenes M1 GAS;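 further: secreted streptokinase activity via plasminogen activation per viability signal from cell pellet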
# T3 sequence (P10520 whole entry): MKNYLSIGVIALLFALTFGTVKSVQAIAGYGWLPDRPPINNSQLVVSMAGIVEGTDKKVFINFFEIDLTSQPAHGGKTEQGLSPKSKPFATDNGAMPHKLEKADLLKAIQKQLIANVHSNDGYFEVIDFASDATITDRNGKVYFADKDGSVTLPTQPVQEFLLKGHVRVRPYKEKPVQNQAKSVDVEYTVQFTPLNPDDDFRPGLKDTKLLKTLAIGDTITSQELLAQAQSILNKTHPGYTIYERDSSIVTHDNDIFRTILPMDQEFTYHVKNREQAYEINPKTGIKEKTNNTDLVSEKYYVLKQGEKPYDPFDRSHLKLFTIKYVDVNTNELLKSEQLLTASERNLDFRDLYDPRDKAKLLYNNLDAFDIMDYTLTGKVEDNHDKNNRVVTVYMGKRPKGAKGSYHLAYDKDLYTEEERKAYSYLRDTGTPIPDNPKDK
# [11] = molecular target: T4, Trace amine-associated receptor 1 (Homo sapiens, UniProt Q96RJ0); assay: Counterscreen for antagonists of the human trace amine associated receptor 1 (hTAAR1): Fluorescence-based cell-based high throughput dose response assay to identify TAAR1 Agonists.; type: functional
# T4 sequence (Q96RJ0 whole entry): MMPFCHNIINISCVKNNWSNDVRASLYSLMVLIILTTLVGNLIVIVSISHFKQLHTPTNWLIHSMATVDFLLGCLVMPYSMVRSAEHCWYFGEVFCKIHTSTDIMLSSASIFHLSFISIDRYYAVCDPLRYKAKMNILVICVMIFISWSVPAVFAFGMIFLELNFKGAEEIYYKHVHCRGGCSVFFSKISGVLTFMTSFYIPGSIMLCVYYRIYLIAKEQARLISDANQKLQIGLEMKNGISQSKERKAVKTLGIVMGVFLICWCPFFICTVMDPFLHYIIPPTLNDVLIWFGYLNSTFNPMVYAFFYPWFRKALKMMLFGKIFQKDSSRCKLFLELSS
# H9c2 = assay: cells; type: functional, cell-based; conditions: Rattus norvegicus, H9c2, Myocardium;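 further: confirmatory concentration-response retest of ultra-high-throughput screening hits for modulation of myocardial damage; cell death induced by hydrogen peroxide oxidative stress; compound pretreatment for 60 min then peroxide exposure for 2 h; potency is for protecting the cells against peroxide damage rather than for killing them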
# Streptococcus = assay: Group A Streptococcus viability loss, dose response, counter-screen for streptokinase expression inhibitor project, luminescence, BacTiterGlo (AID 1915); type: functional, organism-based;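 further: potency for reduction of bacterial viability or growth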
# [12] = Counterscreen for […] of the human trace amine associated receptor 1 (TAAR1): Fluorescence-based cell-based high throughput dose response assay to identify nonselective Ga16 agonists.; type: functional
# [13] = Counterscreen for antagonists of the human trace amine associated receptor 1 (hTAAR1): Fluorescence-based cell-based high throughput dose response assay to identify nonselective Ga16 antagonists.; type: functional
# [14] = tested on: Streptococcus sp. 'group A'; assay: growth inhibition of control SK(-) GAS strain, dose response, counter-screen for streptokinase expression inhibitor project, luminescence, kanamycin, BacTiterGlo, confirmation (AID 1900); type: functional, organism-based
# [15] = molecular target: T4, Trace amine-associated receptor 1; assay: Fluorescence-based cell-based high throughput dose response assay to identify antagonists of the human trace amine associated receptor 1 (TAAR1).; type: functional
# [16] = TRPM1 promoter luciferase reporter signal decrease, dose response, MITF inhibitor project, cell-based, SK-MEL-5, dry powder, set 8 (AID 624430); type: functional
# [17] = MITF: Counter assay: A375 proliferation Measured in Cell-Based System Using Plate Reader - 2084-03_Inhibitor_Dose_DryPowder_Activity_Set8.; type: functional; conditions: A-375
# [18] = MITF Orthogonal Assay: SK-MEL-5 CTG Assay Measured in Cell-Based System Using Plate Reader - 2084-02_Inhibitor_Dose_DryPowder_Activity_Set7.; type: functional
# Major prion protein = Major prion protein (Homo sapiens, UniProt P04156); type: functional, cell-based
# [19] = molecular target: T5, Heat shock factor protein 1 (Mus musculus, UniProt P38532); assay: HSF1 potentiators in luciferase reporter cells, confirmation, cell-based, NIH3T3, luminescence, dose retest (AID 435004); type: functional;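 further: stress induced by proteasome inhibitor MG132 added 30 min after compound; luciferase reporter driven by HSF1 response element in NIH3T3 cells; actives raise luminescence as potentiators of the MG132 stress response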
# T5 sequence (P38532 whole entry): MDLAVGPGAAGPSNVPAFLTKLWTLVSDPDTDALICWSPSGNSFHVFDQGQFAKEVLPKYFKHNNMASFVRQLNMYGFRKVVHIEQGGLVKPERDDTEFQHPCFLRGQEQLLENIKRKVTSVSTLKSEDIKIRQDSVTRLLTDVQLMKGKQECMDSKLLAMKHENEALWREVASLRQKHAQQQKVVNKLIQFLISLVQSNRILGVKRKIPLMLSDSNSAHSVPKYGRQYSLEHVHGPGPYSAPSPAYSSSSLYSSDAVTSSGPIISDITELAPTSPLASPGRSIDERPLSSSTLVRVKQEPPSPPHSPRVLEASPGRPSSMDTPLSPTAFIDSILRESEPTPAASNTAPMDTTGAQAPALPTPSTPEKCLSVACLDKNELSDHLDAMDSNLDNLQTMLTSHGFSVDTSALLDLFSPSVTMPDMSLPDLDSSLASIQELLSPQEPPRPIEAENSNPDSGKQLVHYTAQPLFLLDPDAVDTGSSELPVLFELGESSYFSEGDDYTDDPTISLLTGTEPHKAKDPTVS
# [20] = molecular target: Mitogen-activated protein kinase 10 (Homo sapiens, UniProt P53779); assay: Dose response biochemical screening assay for inhibitors of c-Jun N-Terminal Kinase 3 (JNK3). [Related pubchem assays: 746 ]
# [21] = molecular target: Kappa-type opioid receptor (Homo sapiens, UniProt P41145); assay: OPRK1 antagonists, late-stage follow-up, cell-based, fluorescence, dose response (AID 652032); type: functional
# [22] = molecular target: Metabotropic glutamate receptor 3 (Rattus norvegicus, UniProt P31422); assay: mGlu3 NAM potency via calcium readout, dose response, mGlu3 NAM project, TREx293 cells, Galpha15, calcium flux (AID 651840); type: functional
# [23] = Luminescence-based cell-based high throughput dose response assay to identify activators of the DAF-12 from the parasite S. stercoralis (ssDAF-12).; type: functional
# [24] = HEK293 cell viability, dose response, counter-screen for EBV LMP1 inhibitor project, dry powder, set 2 (AID 624374); type: functional
# Beta Lactamase [25] = molecular target: T6, Beta Lactamase (Pseudomonas aeruginosa, UniProt Q932Y6); assay: VIM-2 inhibitor FRET-based artefact check, dose response, artefact control for selective VIM-2 inhibitor project, biochemical, FRET readout, CCF2 substrate (AID 1926)
# Beta-lactamase [26] = molecular target: Beta-lactamase (Salmonella choleraesuis (strain SC-B67), UniProt Q5J463); assay: Epi-absorbance-based counterscreen for selective VIM-2 inhibitors: dose response biochemical high throughput screening assay to identify inhibitors of TEM-1 serine-beta-lactamase.
# Beta-lactamase [27] = molecular target: T7, Beta-lactamase (Pseudomonas aeruginosa, UniProt Q79MP6); assay: […] counterscreen for selective VIM-2 inhibitors: dose response biochemical high throughput screening assay to identify inhibitors of IMP-1 metallo-beta-lactamase.
# Beta-lactamase [28] = molecular target: T7, Beta-lactamase; assay: IMP-1 metallo-beta-lactamase inhibitors, dose response, selectivity assay for VIM-2 inhibitor project, biochemical, epi-absorbance (AID 1920)
# Beta Lactamase [29] = molecular target: T6, Beta Lactamase; assay: VIM-2 metallo-beta-lactamase inhibitor potency, dose response, biochemical, epi-absorbance readout, selective inhibitors (AID 1919)
# [30] = PAX2 cell-based inhibition, dose response, selectivity assay for PAX8 inhibitor project, plate reader, dry powder samples (AID 743048); type: functional;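 further: HEK293 cells carrying a WT1 promoter luciferase reporter driven by expressed Pax2; potency is for inhibition of Pax2 driven reporter signal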
# [31] = cytotoxicity dependent on PAX8, dose response, cell-based, plate reader, dry powder (AID 743049); type: functional
# Paired box protein Pax-8 = Paired box protein Pax-8 (Homo sapiens, UniProt Q06710); assay: inhibitors of PAX8-driven TPO luciferase reporter, dose response, RMG-I cells, cherry-pick (AID 687027); type: functional, cell-based;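 further: luciferase reporter driven by Pax8 target thyroperoxidase promoter measured by SteadyGlo luminescence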
# [32] = molecular target: Endoplasmic reticulum aminopeptidase 1 (Homo sapiens, UniProt Q9NZ08); assay: ERAP1 aminopeptidase inhibitors, dose response, biochemical, cherry-pick, set 2, plate reader (AID 743314)
# [33] = molecular target: Potassium channel subfamily K member 9 (Homo sapiens, UniProt Q9NPC2); assay: TASK3 (KCNK9) channel inhibitors, thallium flux, SAR follow-up, selectivity assay for TASK1 inhibitor project, cell-based, FluxOR thallium flux, concentration-response (AID 652211); type: functional;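 further: potency is for inhibitors of the channel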
structure (smiles),measurement,setting,value
CC(=O)c1ccc(NC(=O)c2coc(=O)c(Br)c2)cc1,IC50,[1],10.7 µM (inactive)
same,IC50,[2],8.4 µM (active)
COc1ccc(OC)c(CCNC(=O)C2CCN(c3nnc(-n4cccc4)s3)CC2)c1,EC50,[3],1.51 µM (active)
same,EC50,[4],2.85 µM (active)
CC(C)CN(C(=O)COC(=O)C12CC3CC(CC(O)(C3)C1)C2)C1CCS(=O)(=O)C1 (stereo unspecified),AC50,[5],0.209 µM (active)
same,AC50,[6],0.252 µM (active)
CCOc1ccccc1NC(=O)c1cccc(NC(=O)c2ccc(Cl)cc2)c1,IC50,[7],7.24 µM (active)
same,IC50,[8],0.139 µM (active)
N#Cc1c(NCCN)nc(-c2ccco2)c2c1CCCC2,EC50,[9],10.8 µM (inactive)
same,EC50,[10],> 91.2 µM (inactive)
COc1cc(OC)cc(C(=O)Nc2cc(Nc3cccc(Cl)c3)ncn2)c1,IC50,Protein Wnt-3a,> 21.8 µM (inactive)
COc1cccc(-c2nn(-c3ccccc3)cc2C(=O)Nc2nccs2)c1,EC50,Streptokinase A,35.9 µM (active)
same,EC50,[11],> 29.9 µM (inactive)
same,IC50,H9c2,7.3 µM (active)
same,EC50,Streptococcus,> 150 µM (not active)
same,EC50,[12],> 29.9 µM (inactive)
same,IC50,[13],> 29.9 µM (inactive)
same,EC50,[14],14.9 µM (active)
same,IC50,[15],4.72 µM (active)
CN(C1=CC(=O)c2ccccc2C1=O)c1ccccc1,AC50,[16],16.2 µM (active)
same,AC50,[17],> 70 µM (inactive)
same,AC50,[18],2.32 µM (active)
CCCc1nc(SCC(=O)Nc2cc(C)on2)c2ccccc2n1,IC50,cells,> 138 µM (inactive)
same,IC50,Major prion protein,1.01 µM (active)
same,EC50,[19],31.6 µM (active)
same,IC50,[20],83.5 µM (not active)
COC(=O)c1cc(Br)cnc1N1CCC(Nc2ccccc2)CC1,IC50,[21],17.5 µM (inactive)
COc1ccc(C#Cc2ccc(C(=O)N3CC4CCC(O)C4C3)cc2)cc1 (stereo unspecified),IC50,[22],3.5 µM
COc1ccc(S(=O)(=O)Cc2ccc(C(=O)NCCCN3CCc4ccccc4C3)o2)cc1,IC50,[23],> 67.5 µM (inactive)
COc1ccccc1C(=O)Nc1ccc2c(c1)C(=O)N(C)[C@@H]1CC[C@H](CC(=O)NCCc3ccncc3)O[C@H]1CO2,AbsAC35,[24],153.61 µM
CCc1nnc(S)n1/N=C/c1ccc(NC(C)=O)cc1,IC50,Beta Lactamase [25],2.08 µM (active)
same,IC50,Beta-lactamase [26],> 59.6 µM (inactive)
same,IC50,Beta-lactamase [27],> 59.6 µM (inactive)
same,IC50,Beta-lactamase [28],> 59.6 µM (inactive)
same,IC50,Beta Lactamase [29],6.32 µM (active)
C[C@H](CO)N1C[C@H](C)[C@@H](CN(C)Cc2ccc(-c3ccccc3)cc2)Oc2ccc(NC(=O)C3CC3)cc2CC1=O,AC50,[30],> 70 µM (inactive)
same,AC50,[31],> 70 µM (inactive)
same,AC50,Paired box protein Pax-8,26.1 µM (active)
C[C@H](CO)N1C[C@H](C)[C@H](CN(C)Cc2ccc(C(=O)O)cc2)Oc2ccc(NC(=O)Nc3cccc4ccccc34)cc2CC1=O,AC50,[32],21.1 µM (active)
CCOc1ccccc1NC(=O)c1cccc(NC(=O)c2ccccc2C)c1,IC50,[33],4.29 µM (active)
same,IC50,[8],0.14 µM (active)
